Data set [1] has as its system catP reporter (Chloramphenicol Acetyl Transferase, CAT). The class given is cell-based, Clostridium sporogenes NCIMB 10696.
The next data set deals with C. sporogenes. Type of data set: cell-based, Clostridium sporogenes. The settings on record: theophylline 0.1-10 mM supplemented at time zero. The method, then: For growth experiments, pre-cultures grown for 12 hours were diluted to a starting OD600 of 0.01 with fresh medium containing different concentrations of the inducer theophylline (0-10 mM). Because theophylline is dissolved in DMSO, appropriate quantities of DMSO were added to all the cultures to account for any effect DMSO might have on growth.

The subject of the next data set is Clostridium sporogenes. Type of data set: in vitro ADME. To be noted: 2 mM in TYG medium; up to 20 hours. The method, then:
To analyse if C. sporogenes consumes theophylline, 12 hour cultures were diluted to a staring OD600 of 0.01. At an OD600 of ≈0.5 cultures were induced with 2 mM theophylline. 1 mL samples were taken immediately and then at 2, 4, 6, 8, 10 and 20 hours after supplementation of theophylline. Samples were centrifuged for 10 min and 10000×g. Supernatants were used to determine the concentration of theophylline using an Alliance HT 2795 HPLC (Waters corporation) coupled to a Micromass Quattro LC Mass Spectrometer (Waters Wilmslow) in positive mode from m/z 70 to 500 for all samples at a scan rate of 1 cycle/s and equipped with an electrospray source. The general parameters were as follows: capillary voltage 2000 V, sampling cone 30 V, source temperature 130° C., desolvation temperature 350° C., cone gas flow 64 L/h and desolvation gas flow 621 L/h.
Prior to ionization, chromatographic separation was achieved using a Supelco Ascentis Express HPLC column (100 mm×3 mm, 2.7 μM, Sigma Aldrich). The mobile phase consisted of (A) water with 0.1% v/v formic acid and (B) methanol with 0.1% v/v formic acid. […]
As requisite of a good inducer, it was ascertained that theophylline is not metabolized by Clostridium sporogenes. […] The concentration of theophylline was monitored by HPLC/MS (high-performance liquid chromatography-mass spectrometry) analysis of cell-free supernatant samples over time.

For `Cn1c(=O)c2[nH]cnc2n(C)c1=O` [theophylline], the “dose dependency of gene expression” value in data set [1] is “higher levels of gene expression”. Further, the “concentrations resulting in a reduction of growth” value in the data set with C. sporogenes was “higher than 5 mM”. Further, the “concentration of theophylline in cell-free supernatant over time” value with Clostridium sporogenes is given as “remains constant”.

These data come from patent publication US20220090096A1 (priority 2019, published 2022).
